{"source": "patent US9485971B2", "about": "“Fumarylacetoacetate hydrolase (Fah)-deficient pigs and uses thereof” (May Foundation for Medical Education and Research, priority 2010, dated 2016)", "origin": "cited, not measured here", "system": "Fah-deficient mice", "data": [{"compound": "O=C1CCCC(=O)C1C(=O)c1ccc(C(F)(F)F)cc1[N+](=O)[O-]", "note": "[NTBC, 2-(2-nitro-4-trifluoro-methyl-benzoyl)-1,3 cyclohexanedione]", "values": [{"measurement": "phenotype at suboptimal doses of NTBC", "setting": "Fah-/- mice, suboptimal doses", "result": "develop HCC and fibrosis"}, {"measurement": "effect on liver function and neonatal lethality", "setting": "Fah-deficient mice treated with NTBC", "result": "restores liver function and abolishes neonatal lethality"}, {"measurement": "hepatocellular carcinoma penetrance rate", "setting": "suboptimal NTBC dose of 0.2 mg/kg/day, mice, within the first six months of life", "result": "exceeding 50%"}]}]}
